These results are taken from publication PMC10788915, “Fragment Merging, Growing, and Linking Identify New Trypanothione Reductase Inhibitors for Leishmaniasis” (Journal of Medicinal Chemistry, 2024).

The structures appear in SMILES notation. Read-outs that look alike come from different tables or passages of the source.

What is called EC50 is the concentration at which the effect is half-maximal.

This experiment has as its system L. infantum intramacrophage amastigotes. Briefly: Ex vivo inhibition of intramacrophage amastigote growth. It counts as cell-based, Leishmania infantum. Conditions: for EC50: 72 h, murine macrophages infected with L. infantum amastigotes, read-out: intramacrophage amastigote EC50 ± SE (95% CI). As to the method: Balb/c murine macrophages were used to perform ex vivo assay since the parasites infect them more effectively. Macrophages (5 × 10^5/well) were placed on glass coverslips within a 24-well culture plate and incubated with complete RPMI in a 5% CO2 incubator at 37 °C for 4 h to achieve cell adhesion. After this time, L. infantum amastigotes from spleens of previously infected hamsters were added onto the macrophages adhering to the coverslips at the ratio of 10:1 (parasites/macrophages). After 24 h of infection, the noninternalized amastigotes were removed by washes with RPMI. The infected macrophages were incubated with complete RPMI medium (control) or medium containing different concentrations of compounds in a 5% CO2 incubator at 37 °C for 72 h. Then, the coverslips were fixed with methanol, stained with Giemsa 10%, and analyzed by optical microscopy. The percentage of the infected macrophages and the number of amastigotes per infected macrophage were determined by random counting of 100 cells in each coverslip. Infection was judged to be adequate if more than 70% of the macrophages in the untreated control were infected. Activity for each compound was expressed as percentage of parasite burden reduction = infectivity index of treated cells/infectivity index of untreated cells. The infectivity index was calculated as follows: number of infected macrophages × mean number of amastigotes per macrophage / total number of macrophages. Nonlinear regression analysis (Graph-Pad Software Inc., San Diego, USA) was used for curve fitting and calculation of 50% inhibitory concentrations (IC50). The experiments were performed in triplicate, and two independent experiments were conducted.

For `C[N+]1(CCCc2ccccc2)CCN(C(=O)N(Cc2ccc(C(=O)NCCc3ccc(F)cc3)o2)c2ccc(F)cc2)CC1.[I-]` [Compound 9, 4-(((5-((4-Fluorophenethyl)carbamoyl)furan-2-yl)methyl)(4-fluorophenyl)carbamoyl)-1-methyl-1-(3-phenylpropyl)piperazin-1-ium Iodide], the EC50 stood at 15.3 ± 2.3 µM. In addition, the EC50 (Leishmania infantum, Macrophage, in Mus musculus) was found to be 15.3 µM. On to `O=C(NCCc1ccc(F)cc1)c1ccc(CNC(=O)N2CC[N+](CCCc3ccccc3)(Cc3ccc(Cl)c(Cl)c3)CC2)o1.[I-]` [Compound 14, 1-(3,4-Dichlorobenzyl)-4-(((5-((4-fluorophenethyl)carbamoyl)furan-2-yl)methyl)carbamoyl)-1-(3-phenylpropyl)piperazin-1-ium Iodide], for which the intramacrophage amastigote reduction (at 12.5 μM) is 40% of reduction at 12.5 μM.
